Experimental data: patent US11739074B2, “Ras inhibitors” (Revolution Medicines, Inc., priority 2019, dated 2023)
pEC50, pIC50: −log10 of the molar value. Like-named read-outs stand apart in the source and are kept apart here.

How the values were obtained:
AsPC-1 (K-Ras G12D) [1] = assay: Potency assay: pERK in AsPC-1 cells; format: cell-based; conditions: Homo sapiens
AsPC-1 (K-Ras G12D) [2] = assay: CellTiter-Glo cell viability assay, AsPC-1; format: cell-based; conditions: Homo sapiens, ASPC1, 120 h
Procedure: Determination of Cell Viability in RAS Mutant Cancer Cell Lines
Protocol: CellTiter-Glo® Cell Viability Assay
Note—The following protocol describes a procedure for monitoring cell viability of K-Ras mutant cancer cell lines in response to a compound of the invention. Other RAS isoforms may be employed, though the number of cells to be seeded will vary based on cell line used.
Test compounds (132.5 nL) were directly dispensed into the assay plates containing cells. […] On day 5, assay plates and their contents were equilibrated to room temperature for approximately 30 minutes. […] Luminescence was measured using the PerkinElmer Enspire. Data were normalized by the following: (Sample signal/Avg. DMSO)*100. The data were fit using a four-parameter logistic fit.

[3] = ASPC1, AsPC-1 cells, K-Ras G12D, read-out: pERK EC50 (AsPC-1 KRAS G12D)
[4] = AsPC-1, K-Ras G12D, 5-day treatment, read-out: AsPC-1 Cell Viability IC50
[5] = ASPC1, read-out: pERK EC50 (AsPC-1 KRAS G12D)
[6] = read-out: AsPC-1 Cell Viability IC50, AsPC-1, K-Ras G12D, 5-day treatment

Structure (SMILES)	pEC50 (AsPC-1 (K-Ras G12D) [1]; [3])	pIC50 (AsPC-1 (K-Ras G12D) [2]; [4])	pEC50 (AsPC-1 (K-Ras G12D) [1]; [5])	pIC50 (AsPC-1 (K-Ras G12D) [2]; [6])
CCn1c(-c2cccnc2[C@H](C)OC)c2c3cc(ccc31)-c1cc(O)cc(c1)C[C@H](NC(=O)[C@H](C(C)C)N(C)C(=O)[C@H]1CN1)C(=O)N1CCC[C@H](N1)C(=O)OCC(C)(C)C2 [Compound 112]	> 5.30	5.00 to 6.00	–	–
CCn1c(-c2cccnc2[C@H](C)OC)c2c3cc(ccc31)-c1cc(O)cc(c1)C[C@H](NC(=O)[C@H](C(C)C)N(C)C(=O)CC1CN(C(=O)[C@H]3CN3)C1)C(=O)N1CCC[C@H](N1)C(=O)OCC(C)(C)C2 [Compound 179]	> 5.30	< 5.00	–	–
CCn1c(-c2cccnc2[C@H](C)OC)c2c3cc(ccc31)-c1cc(O)cc(c1)C[C@H](NC(=O)[C@H](C(C)C)N(C)C(=O)CN(C)C(=O)[C@H]1CN1CCCN1CCOC1=O)C(=O)N1CCC[C@H](N1)C(=O)OCC(C)(C)C2 (stereo partly shown) [Compound 272]	–	–	> 5.30	5.00 to 6.00
CCn1c(-c2cccnc2[C@H](C)OC)c2c3cc(ccc31)-c1cc(O)cc(c1)C[C@H](NC(=O)[C@H](C(C)C)N(C)C(=O)CN(C)C(=O)[C@@H]1CN1CCCN1CCCC1=O)C(=O)N1CCC[C@H](N1)C(=O)OCC(C)(C)C2 (stereo partly shown) [Compound 269]	–	–	> 5.30	5.00 to 6.00
CCn1c(-c2cccnc2[C@H](C)OC)c2c3cc(ccc31)-c1cc(O)cc(c1)C[C@H](NC(=O)[C@H](C(C)C)N(C)C(=O)N1CCCN(C(=O)[C@H]3CN3)CC1)C(=O)N1CCC[C@H](N1)C(=O)OCC(C)(C)C2 [Compound 190]	> 5.30	5.00 to 6.00	–	–
CCn1c(-c2cccnc2[C@H](C)OC)c2c3cc(ccc31)-c1cc(O)cc(c1)C[C@H](NC(=O)[C@H](C(C)C)N(C)C(=O)CN(C)S(=O)(=O)[C@@H]1CN1C)C(=O)N1CCC[C@H](N1)C(=O)OCC(C)(C)C2 (single isomer, unassigned) [Compound 92]	> 5.30	5.00 to 6.00	–	–
CCn1c(-c2cccnc2[C@H](C)OC)c2c3cc(ccc31)-c1cc(O)cc(c1)C[C@H](NC(=O)[C@H](C(C)C)N(C)C(=O)[C@@H]1CCN(C(=O)[C@@H]3CN3)C1)C(=O)N1CCC[C@H](N1)C(=O)OCC(C)(C)C2 [Compound 172]	> 5.30	5.00 to 6.00	–	–
CCn1c(-c2cccnc2[C@H](C)OC)c2c3cc(ccc31)-c1cc(O)cc(c1)C[C@H](NC(=O)[C@H](C(C)C)N1CCC3(CCN(C(=O)[C@@H]4CN4)C3)C1=O)C(=O)N1CCC[C@H](N1)C(=O)OCC(C)(C)C2 (stereo partly shown) [Compound 113]	> 5.30	5.00 to 6.00	–	–
CCn1c(-c2cccnc2[C@H](C)OC)c2c3cc(ccc31)-c1cc(O)cc(c1)C[C@H](NC(=O)[C@H](C(C)C)N(C)C(=O)N(C)CCN(C)C(=O)[C@H]1CN1)C(=O)N1CCC[C@H](N1)C(=O)OCC(C)(C)C2 [Compound 204]	> 5.30	5.00 to 6.00	–	–
CCn1c(-c2cccnc2[C@H](C)OC)c2c3cc(ccc31)-c1cc(O)cc(c1)C[C@H](NC(=O)[C@H](C(C)C)N(C)C(=O)[C@H]1CCCCN(C(=O)[C@H]3CN3)C1)C(=O)N1CCC[C@H](N1)C(=O)OCC(C)(C)C2 [Compound 247]	> 5.30	5.00 to 6.00	–	–
CCn1c(-c2cccnc2[C@H](C)OC)c2c3cc(ccc31)-c1cc(O)cc(c1)C[C@H](NC(=O)[C@H](C(C)C)N(C)C(=O)C13CC(CN1C(=O)[C@H]1CN1)C3)C(=O)N1CCC[C@H](N1)C(=O)OCC(C)(C)C2 [Compound 164]	> 5.30	5.00 to 6.00	–	–
CCn1c(-c2cccnc2[C@H](C)OC)c2c3cc(ccc31)-c1cc(O)cc(c1)C[C@H](NC(=O)[C@H](C(C)C)N(C)C(=O)[C@H]1CCN1C(=O)[C@@H]1CN1)C(=O)N1CCC[C@H](N1)C(=O)OCC(C)(C)C2 [Compound 157]	> 5.30	5.00 to 6.00	–	–
CCn1c(-c2cccnc2[C@H](C)OC)c2c3cc(ccc31)-c1cc(O)cc(c1)C[C@H](NC(=O)[C@H](C1CCCC1)N(C)C(=O)[C@@H](C)N(C)C(=O)[C@@H]1N[C@@H]1C1CC1)C(=O)N1CCC[C@H](N1)C(=O)OCC(C)(C)C2 [Compound 327]	> 5.30	5.00 to 6.00	–	–
CCn1c(-c2cccnc2[C@H](C)OC)c2c3cc(ccc31)-c1cc(O)cc(c1)C[C@H](NC(=O)[C@H](C(C)C)N(C)C(=O)C1CCN(C(=O)[C@@H]3CN3)CC1)C(=O)N1CCC[C@H](N1)C(=O)OCC(C)(C)C2 [Compound 89]	> 5.30	< 5.00	–	–
CCn1c(-c2cccnc2[C@H](C)OC)c2c3cc(ccc31)-c1cccc(c1)C[C@H](NC(=O)[C@H](C(C)C)N(C)C(=O)[C@H]1CC[C@H](N=C=NC(C)C)C1)C(=O)N1CCC[C@H](N1)C(=O)OCC(C)(C)C2 [Compound 124]	> 5.30	–	–	–
CCn1c(-c2cccnc2[C@H](C)OC)c2c3cc(ccc31)-c1cc(O)cc(c1)C[C@H](NC(=O)[C@H](C(C)C)N(C)C(=O)C1CCN(S(=O)(=O)[C@H]3CN3C)CC1)C(=O)N1CCC[C@H](N1)C(=O)OCC(C)(C)C2 (single isomer, unassigned) [Compound 108]	> 5.30	5.00 to 6.00	–	–
CCn1c(-c2cccnc2[C@H](C)OC)c2c3cc(ccc31)-c1cc(O)cc(c1)C[C@H](NC(=O)[C@H](C(C)C)N(C)C(=O)c1ccc(NC(=O)[C@@H]3CN3)cn1)C(=O)N1CCC[C@H](N1)C(=O)OCC(C)(C)C2 [Compound 187]	> 5.30	5.00 to 6.00	–	–
CCn1c(-c2cnccc2COC)c2c3cc(ccc31)-c1cccc(c1)C[C@H](NC(=O)[C@H](C(C)C)N(C)C(=O)CCN=C=NC(C)(C)C)C(=O)N1CCC[C@H](N1)C(=O)OCC(C)(C)C2 [79 A and B]	> 5.30	5.00 to 6.00	–	–
CCn1c(-c2cccnc2[C@H](C)OC)c2c3cc(ccc31)-c1csc(n1)C[C@H](NC(=O)[C@H](C(C)C)N(C)C(=O)N(C)C1CN(C(=O)[C@@H]3CN3)C1)C(=O)N1CCC[C@H](N1)C(=O)OCC(C)(C)C2 [Compound 221]	> 5.30	5.00 to 6.00	–	–
CCn1c(-c2cccnc2[C@H](C)OC)c2c3cc(ccc31)-c1cc(O)cc(c1)C[C@H](NC(=O)[C@H](C(C)C)N(C)C(=O)[C@]1(F)CCN(C(=O)[C@@H]3CN3)C1)C(=O)N1CCC[C@H](N1)C(=O)OCC(C)(C)C2 [Compound 184]	> 5.30	5.00 to 6.00	–	–
CCn1c(-c2cccnc2[C@H](C)OC)c2c3cc(ccc31)-c1cc(O)cc(c1)C[C@H](NC(=O)[C@H](C(C)C)N(C)C(=O)C13CC(CN1C(=O)[C@@H]1CN1)C3)C(=O)N1CCC[C@H](N1)C(=O)OCC(C)(C)C2 [Compound 163]	> 5.30	5.00 to 6.00	–	–
CCn1c(-c2cccnc2[C@H](C)OC)c2c3cc(ccc31)-c1cc(O)cc(c1)C[C@H](NC(=O)[C@H](C(C)C)N(C)C(=O)CC1CN(C(=O)[C@@H]3CN3)C1)C(=O)N1CCC[C@H](N1)C(=O)OCC(C)(C)C2 [Compound 178]	> 5.30	< 5.00	–	–
CCn1c(-c2cccnc2[C@H](C)OC)c2c3cc(ccc31)-c1cc(O)cc(c1)C[C@H](NC(=O)[C@H](C(C)C)N(C)C(=O)[C@@]1(F)CCN(C(=O)[C@@H]3CN3)C1)C(=O)N1CCC[C@H](N1)C(=O)OCC(C)(C)C2 [Compound 185]	> 5.30	5.00 to 6.00	–	–
CCn1c(-c2cccnc2[C@H](C)OC)c2c3cc(ccc31)-c1cc(O)cc(c1)C[C@H](NC(=O)[C@H](C(C)C)N(C)C(=O)C1CN(S(=O)(=O)[C@@H]3CN3C)C1)C(=O)N1CCC[C@H](N1)C(=O)OCC(C)(C)C2 (single isomer, unassigned) [Compound 118]	> 5.30	< 5.00	–	–
CCn1c(-c2cccnc2[C@H](C)OC)c2c3cc(ccc31)-c1cc(O)cc(c1)C[C@H](NC(=O)[C@H](C1CCCC1)N(C)C(=O)CN(C)C(=O)[C@@H]1N[C@@H]1C1(F)CC1)C(=O)N1CCC[C@H](N1)C(=O)OCC(C)(C)C2 [Compound 314]	> 5.30	6.00 to 7.00	–	–
CCn1c(-c2cccnc2[C@H](C)OC)c2c3cc(ccc31)-c1cc(O)cc(c1)C[C@H](NC(=O)[C@H](C(C)C)N(C)C(=O)[C@H]1CCN(C(=O)[C@@H]3N[C@@H]3C3CC3)C1)C(=O)N1CCC[C@H](N1)C(=O)OCC(C)(C)C2 [Compound 198]	> 5.30	6.00 to 7.00	–	–
CCn1c(-c2cccnc2[C@H](C)OC)c2c3cc(ccc31)-c1cc(O)cc(c1)C[C@H](NC(=O)[C@@H](C(C)C)N(C)C(=O)[C@@]1(C)CCCN1C(=O)[C@@H]1CN1)C(=O)N1CCC[C@H](N1)C(=O)OCC(C)(C)C2 [Compound 242]	> 5.30	5.00 to 6.00	–	–
CCn1c(-c2cccnc2[C@H](C)OC)c2c3cc(ccc31)-c1cc(O)cc(c1)C[C@H](NC(=O)[C@H](C(C)C)N1CC[C@]3(CCN(C(=O)[C@@H]4N[C@@H]4C4CC4)C3)C1=O)C(=O)N1CCC[C@H](N1)C(=O)OCC(C)(C)C2 [Compound 305]	> 5.30	6.00 to 7.00	–	–
